Tests used:
[1] = cited from earlier work
[2] = test system: breast cancer; conditions: in vivo; cited from earlier work
[3] = test system: metastatic head and neck cancer; experiment: 5-FU infusion in a patient with metastatic head and neck cancer; assay type: in vivo; conditions: one patient; 1000 mg/m^2 per 24 hours, 120 hours infusion; evaluated after one and a half month
Method: A patient with metastatic head and neck cancer was treated with 5-fluorouracil (5-FU) infusion at a dose of 1000 mg/m^2 per 24 hours. The total infusion time was 120 hours.

## CCCCCOC(=O)Nc1nc(=O)n([C@@H]2O[C@H](C)[C@@H](O)[C@H]2O)cc1F [capecitabine]
[1]; tumor tissue vs plasma
  higher concentrations in tumor tissue compared to plasma: 21 fold
[1]; tumor vs normal tissue
  higher FU concentration in tumor compared to normal tissue: 3.2 fold

## COc1cccc2c1C(=O)c1c(O)c3c(c(O)c1C2=O)C[C@@](O)(C(=O)CO)C[C@@H]3O[C@H]1C[C@H](N)[C@@H](O)[C@H](C)O1 [epirubicin]
[2]
  reduction in overall survival on substitution of methotrexate in CMF with epirubicin: 25%

## O=c1[nH]cc(F)c(=O)[nH]1 [5-FU, 5-Fluorouracil]
[3]
  treatment response: progressive disease

Source: patent US8679746B2, “Compositions and methods for predicting outcome of treatment” (Dako Denmark A/S, priority 2005, dated 2014)
